Assay results published in patent publication US20210290537A1, “LIPOSOMAL ELINAFIDE FORMULATIONS AND USES THEREOF” (MALLINCKRODT LLC, priority 2016, published 2021).
Where two headings read alike, the source gives them in different places.

Legend:
[1] = test system: HT-29 human colorectal adenocarcinoma cells; test: In vitro IC50 cytotoxicity, Alamar Blue cell viability; assay type: cell-based
Experimental: HT-29 human colorectal adenocarcinoma cells (#HTB-38, ATCC, Manassas, Va.) were plated in 96-well tissue culture plates (Costar #3595) at 5×10^3 cells/well in a final volume of 0.1 mL of 10% fetal bovine serum in McCoy's 5A (#10-050-CV, Mediatech, Manassas, Va.). Defined fetal bovine serum was obtained from HyClone (#SH30070.03, lot #AWB96395, Logan, Utah). Plates containing cells were incubated at 37° C. in 5% CO2 in humidified air for 24 hr. The selected initial cell plating density was chosen based upon the approximate doubling time of the human tumor cell line.
Test compounds were diluted from stock solutions to 2.2 mmol/L in Dulbecco's modified phosphate-buffered saline (DPBS; Mediatech, Inc., lot #21031339, Manassas, Va.), then serially diluted three-fold in DPBS to generate a nine point dose-response curve. Ten microliters of diluted test compounds were added to wells in triplicate to achieve the desired final concentration of test compounds. Plates containing cells with and without added test compounds were returned to incubation as described above.
For the two hour cytotoxicity assessment, medium was removed after two hours of drug exposure and replaced with 0.1 mL/well culture medium, and cells were incubated for an additional 70 hours as above.
For the twenty-four hour cytotoxicity assessment, medium was removed after one day of drug exposure and replaced with 0.1 mL/well culture medium, and cells were returned to incubation for an additional 48 hours. Subsequently, cell viability was assessed using Alamar Blue. For this purpose, media was removed by pipetting from cultured cells and replaced with 0.1 mL/well of 10% (v/v) Alamar Blue (#BUFO12A, AbD Serotec, Raleigh, N.C.) diluted in the appropriate cell culture media. Plates were then returned to incubation as before for appropriate color development, between two to four hours.
Fluorescence of individual plate wells was measured at 545 nm/590 nm (excitation/emission) using a BioTek Synergy4 microplate reader. Cell viability was calculated as a percentage of measured fluorescence obtained relative to cells treated with culture media alone. IC50 values (μmol/L) were determined with the mean of triplicate values using nonlinear regression analysis and a four-parameter logistic model.

[2] = MTD of liposomal and free naphthalimides and azonifides; assay type: in vivo
[3] = phase I studies / clinical development, background; cited from earlier work
[4] = Single-dose muscle myopathy study, 14-day observation; assay type: in vivo; conditions: for Myopathy / Survival: rats, 14 days
Source text: Rats that loss greater than 20% of its body weight were dropped from the study. […]

in vivo = conditions: rat, plasma, 20 mg/kg
[5] = Homo sapiens, 2 h, Table 7, read-out: 2 hr Tx (IC50)
[6] = Homo sapiens, 24 h, Table 7, read-out: 24 hr Tx (IC50)
[7] = Homo sapiens, 48 h, Table 7, read-out: 48 hr Tx (IC50)
[8] = mouse, in vivo, male athymic nude mice, read-out: MTD
[9] = Table 7, read-out: 2 hr Tx (IC50)
[10] = Table 7, read-out: 24 hr Tx (IC50)
[11] = Table 7, read-out: 72 hr Tx (IC50)

`CN(C)CCN1C(=O)c2cccc3cc(N)cc(c23)C1=O` [Amonafide Free, Amonafide] gave an IC50 [1, 5] of 90.3 µM, an IC50 [1, 6] of 34.2 µM and an IC50 [1, 7] of 15.7 µM. For the same molecule, the MTD [2, 8] was 45 mg/kg and the “dose-limiting toxicity in clinical study” value [3] was “high variability and dose-limiting toxicity”.
Molecule `CN(C)CCN1C(=O)c2cccc3cc4ccccc4c(c23)C1=O` [Azonifide Free, Azonifide] has an IC50 [1, 5] of 1.17 µM, an IC50 [1, 6] of 0.256 µM and an IC50 [1, 7] of 0.283 µM. The IC50 ([1]; Homo sapiens, 72 h, Table 7, read-out: 72 hr Tx (IC50)) was 0.386 µM and the MTD [2, 8] was 10 mg/kg.
For `C[C@H](CNCCNC[C@@H](C)N1C(=O)c2cccc3cc([N+](=O)[O-])cc(c23)C1=O)N1C(=O)c2cccc3cc([N+](=O)[O-])cc(c23)C1=O` [DMP-840], the “dose-limiting toxicity in clinical study” value [3] is listed as “dose limiting toxicity”.
With `O=C1c2cccc3cccc(c23)C(=O)N1CCNCCCNCCN1C(=O)c2cccc3cccc(c23)C1=O` [Free Elinafide, Elinafide] the “muscle myopathy in treated rats” value ([4]; administration at MTD, single dose) was “significant muscle myopathy”, the Myopathy ([4]; 25 mg/kg, F) was 1/3 and the Survival ([4]; 25 mg/kg, F) was 3/3. The Myopathy ([4]; 25 mg/kg, M) was 2/3, the Survival ([4]; 25 mg/kg, M) was 3/3 and the Myopathy ([4]; 35 mg/kg, F) was 3/3. For the same molecule, the Survival ([4]; 35 mg/kg, F) was 3/3, the Survival ([4]; 35 mg/kg, M) was 0/3 and the AUC (in vivo) was 4.7 ng·h/mL. For the same molecule, the Cmax (in vivo) was 1.4 ng/mL, the Vd (in vivo) was 204000 and the half-life (in vivo) was 53.5 h. The “dose-limiting toxicity in clinical study” value [3] was “cumulative dose-limiting neuro-muscular toxicity and myelosuppression”.
`CN(C)CCN1C(=O)c2cccc3cc(NC(N)=O)cc(c23)C1=O` [UNBS-5162 Free, UNBS-5162] gave an IC50 [1, 9] greater than 100 µM, an IC50 [1, 10] of 24.8 µM and an IC50 [1, 11] of 31.3 µM. For the same molecule, the MTD ([2]; male athymic nude mice) was 45 mg/kg and the “dose-limiting toxicity in clinical study” value [3] was “dose limiting toxicity”.
In the case of `CN(C)CCN1C(=O)c2cccc3cc([N+](=O)[O-])cc(c23)C1=O` [mitonafide], the “dose-limiting toxicity in clinical study” value [3] is listed as “dose limiting toxicity”.
For Ethonafide [Ethonafide Free], the IC50 [1, 9] was 0.751 µM, the IC50 [1, 10] was 0.189 µM and the IC50 [1, 11] was 0.388 µM. For the same molecule, the MTD ([2]; mouse, in vivo) was 15 mg/kg.
